Data from ChEMBL document CHEMBL5370567 (Bioorg Med Chem, 2023).

biological target: T1, G-protein coupled bile acid receptor 1 (Homo sapiens, UniProt Q8TDU6); test: Positive allosteric modulator activity at human TGR5 expressed in HEK293T cells assessed as increase in cAMP accumulation incubated for 1 hr at 37 degC and further incubated for 1 hr at room temperature by glosensor cAMP accumulation assay; type: functional, cell-based
T1 sequence (Q8TDU6 whole entry): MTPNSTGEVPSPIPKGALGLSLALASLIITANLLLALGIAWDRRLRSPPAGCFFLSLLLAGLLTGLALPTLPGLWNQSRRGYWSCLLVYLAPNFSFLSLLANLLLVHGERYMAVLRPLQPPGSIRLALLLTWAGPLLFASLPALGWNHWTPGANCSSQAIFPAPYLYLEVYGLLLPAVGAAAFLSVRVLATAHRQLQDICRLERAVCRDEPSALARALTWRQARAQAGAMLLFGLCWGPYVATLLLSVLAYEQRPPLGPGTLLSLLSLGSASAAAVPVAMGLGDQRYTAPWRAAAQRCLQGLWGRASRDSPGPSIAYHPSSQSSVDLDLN

| Compound | EC50 |
| --- | --- |
| CO[C@@H]1C[C@@H]2C[C@H](O)CC[C@]2(C)[C@H]2CC(=O)[C@]3(C)[C@@H]([C@H](C)CCC(=O)OC4CC4)CC[C@H]3[C@H]12 | 6.3 µM |
| CO[C@@H]1C[C@@H]2C[C@H](O)CC[C@]2(C)[C@H]2CC(=O)[C@]3(C)[C@@H]([C@H](C)CCC(=O)OC4CCCC4)CC[C@H]3[C@H]12 | 23 µM |
| CO[C@@H]1C[C@@H]2C[C@H](O)CC[C@]2(C)[C@H]2CC(=O)[C@]3(C)[C@@H]([C@H](C)CCC(=O)Oc4cccc5ccccc45)CC[C@H]3[C@H]12 | 38 µM |
| CCOC(=O)CC[C@@H](C)[C@H]1CC[C@H]2[C@@H]3[C@H](OC)C[C@@H]4C[C@H](O)CC[C@]4(C)[C@H]3C[C@H](O)[C@]12C | 19.8 µM |
| CO[C@@H]1C[C@@H]2C[C@H](O)CC[C@]2(C)[C@H]2C[C@H](O)[C@]3(C)[C@@H]([C@H](C)CCC(=O)OCC4CC4)CC[C@H]3[C@H]12 | 14.1 µM |
| CO[C@@H]1C[C@@H]2C[C@H](O)CC[C@]2(C)[C@H]2CC(=O)[C@]3(C)[C@@H]([C@H](C)CCC(=O)OC(C)C)CC[C@H]3[C@H]12 | 12 µM |
| CO[C@@H]1C[C@@H]2C[C@H](O)CC[C@]2(C)[C@H]2C[C@H](O)[C@]3(C)[C@@H]([C@H](C)CCC(=O)OCC4CCCC4)CC[C@H]3[C@H]12 | 25.8 µM |
| CO[C@@H]1C[C@@H]2C[C@H](O)CC[C@]2(C)[C@H]2CC(=O)[C@]3(C)[C@@H]([C@H](C)CCC(=O)OCc4ccccc4)CC[C@H]3[C@H]12 | 76.5 µM |
| COC(=O)CC[C@@H](C)[C@H]1CC[C@H]2[C@@H]3[C@H](OC)C[C@@H]4C[C@H](O)CC[C@]4(C)[C@H]3C[C@H](O)[C@]12C | 8 µM |
| CO[C@@H]1C[C@@H]2C[C@H](O)CC[C@]2(C)[C@H]2C[C@H](O)[C@]3(C)[C@@H]([C@H](C)CCC(=O)OC4CCCC4)CC[C@H]3[C@H]12 | 21.8 µM |
| CO[C@@H]1C[C@@H]2C[C@H](O)CC[C@]2(C)[C@H]2CC(=O)[C@]3(C)[C@@H]([C@H](C)CCC(=O)Oc4ccc5ccccc5c4)CC[C@H]3[C@H]12 | > 100 µM |
| CO[C@@H]1C[C@@H]2C[C@H](O)CC[C@]2(C)[C@H]2C[C@H](O)[C@]3(C)[C@@H]([C@H](C)CCC(=O)OC(C)C)CC[C@H]3[C@H]12 | 9.8 µM |
| CO[C@@H]1C[C@@H]2C[C@H](O)CC[C@]2(C)[C@H]2C[C@H](O)[C@]3(C)[C@@H]([C@H](C)CCC(=O)Oc4ccccc4)CC[C@H]3[C@H]12 | 18.5 µM |
| CO[C@@H]1C[C@@H]2C[C@H](O)CC[C@]2(C)[C@H]2C[C@H](O)[C@]3(C)[C@@H]([C@H](C)CCC(=O)OCc4ccccc4)CC[C@H]3[C@H]12 | 92.5 µM |
| CO[C@@H]1C[C@@H]2C[C@H](O)CC[C@]2(C)[C@H]2CC(=O)[C@]3(C)[C@@H]([C@H](C)CCC(=O)OCC4CCCC4)CC[C@H]3[C@H]12 | 62 µM |
| CCOC(=O)CC[C@@H](C)[C@H]1CC[C@H]2[C@@H]3[C@H](OC)C[C@@H]4C[C@H](O)CC[C@]4(C)[C@H]3CC(=O)[C@]12C | 31.6 µM |
| CO[C@@H]1C[C@@H]2C[C@H](O)CC[C@]2(C)[C@H]2CC(=O)[C@]3(C)[C@@H]([C@H](C)CCC(=O)Oc4ccccc4)CC[C@H]3[C@H]12 | 5.5 µM |
| CO[C@@H]1C[C@@H]2C[C@H](O)CC[C@]2(C)[C@H]2C[C@H](O)[C@]3(C)[C@@H]([C@H](C)CCC(=O)OC4CC4)CC[C@H]3[C@H]12 | 8.9 µM |
| CO[C@@H]1C[C@@H]2C[C@H](O)CC[C@]2(C)[C@H]2CC(=O)[C@]3(C)[C@@H]([C@H](C)CCC(=O)OCC4CC4)CC[C@H]3[C@H]12 | 9.5 µM |
| CO[C@@H]1C[C@@H]2C[C@H](O)CC[C@]2(C)[C@H]2C[C@H](O)[C@]3(C)[C@@H]([C@H](C)CCC(=O)Oc4ccc5ccccc5c4)CC[C@H]3[C@H]12 | > 100 µM |
| CO[C@@H]1C[C@@H]2C[C@H](O)CC[C@]2(C)[C@H]2C[C@H](O)[C@]3(C)[C@@H]([C@H](C)CCC(=O)Oc4cccc5ccccc45)CC[C@H]3[C@H]12 | 48.5 µM |
| COC(=O)CC[C@@H](C)[C@H]1CC[C@H]2[C@@H]3[C@H](OC)C[C@@H]4C[C@H](O)CC[C@]4(C)[C@H]3CC(=O)[C@]12C | 5.3 µM |
